22 compounds from patent US12540141B2, “Spiropyrrolidine derived antiviral agents” (priority 2020, dated 2026) can be followed below.

pIC50: −log10 of the molar value. Some results are limits rather than exact numbers.

The target in the assay is SARS-CoV-2 3CL-protease (Severe acute respiratory syndrome coronavirus 2, UniProt P0DTD1). In words: SARS-CoV-2 3C-Like (3CL) Protease Fluorescence Assay (FRET). The assay is classed as biochemical. The settings on record: SARS-CoV-2 3CL-protease 10 nM, 30 min preincubation at RT, substrate 40 μM.
For `CC(C)C[C@@H](C(=O)N1C[C@]2(C[C@H]1C#N)C(=O)Nc1ccccc12)N(C)C(=O)c1nc2c(F)cc(F)c(F)c2[nH]1` [Example 270], the pIC50 is above 7.00.
Then `CC(C)(F)C[C@H](NC(=O)COc1ccc(F)cc1F)C(=O)N1C[C@]2(C[C@H]1C#N)C(=O)Nc1ccc(Cl)cc12` [Example 445], with 6.00 to 7.00; and `CCCC[C@H](NC(=O)c1cnn(C(C)(C)C)c1)C(=O)N1C[C@]2(C[C@H]1C#N)C(=O)Nc1ccccc12` [Example 131], with above 7.00.
Compound `CC(C)C[C@@H](C(=O)N1C[C@]2(C[C@H]1C#N)C(=O)Nc1ccccc12)N(C)C(=O)c1cc2ccccc2o1` [Example 208] showed a negative logarithm of the IC50 (pIC50) above 7.00.
Then `CC(C)C[C@@H](C(=O)N1C[C@]2(C[C@H]1C#N)C(=O)Nc1ccccc12)N(C)C(=O)c1nc2ccccc2[nH]1` [Example 205], with above 7.00; and `Cc1ccc2cc(C(=O)N(C)[C@@H](CC(C)C)C(=O)N3C[C@]4(C[C@H]3C#N)C(=O)Nc3ccccc34)[nH]c2n1` [Example 465], with above 7.00; and `CCCC[C@@H](C(=O)N1C[C@]2(C[C@H]1C#N)C(=O)Nc1ccccc12)N(C)C(=O)c1cnn(C(C)(C)C)c1` [Example 408], with above 7.00.
Then `CC(C)C[C@@H](C(=O)N1C[C@]2(C[C@H]1C#N)C(=O)Nc1ccccc12)N(C)C(=O)c1cccc2ccncc12` [Example 293], with above 7.00; and `CC(C)C[C@@H](C(=O)N1C[C@]2(C[C@H]1C#N)C(=O)Nc1ccccc12)N(C)C(=O)c1ccc2c(F)cc(F)cc2n1` [Example 290], with 6.00 to 7.00.
Take `CC(C)C[C@@H](C(=O)N1C[C@]2(C[C@H]1C#N)C(=O)Nc1ccccc12)N(C)C(=O)c1cnc2c(C(F)(F)F)cccc2c1` [Example 268]: the negative logarithm of the IC50 (pIC50) was 6.00 to 7.00.
Compound `CC(C)C[C@@H](C(=O)N1C[C@]2(C[C@H]1C#N)C(=O)Nc1ccccc12)N(C)C(=O)c1n[nH]c(-c2ccccc2)n1` [Example 288] showed a pIC50 of 6.00 to 7.00.
The compound `[2H]C([2H])([2H])N(C(=O)c1cn(CC(F)(F)F)nc1C1CC1)[C@@H](CC1CC1)C(=O)N1C[C@]2(C[C@H]1C#N)C(=O)Nc1ccccc12` [Example 401] gave a pIC50 above 7.00.
Then `CN(C(=O)Cc1cnccn1)[C@@H](CC(C)(C)F)C(=O)N1C[C@]2(C[C@H]1C#N)C(=O)Nc1ccc(Cl)cc12` [Example 484], with above 7.00; and `Cc1cnc2ccc(C(=O)N[C@@H](CC(C)(C)C)C(=O)N3C[C@]4(C[C@H]3C#N)C(=O)Nc3ccccc34)cc2c1` [Example 135], with above 7.00; and `[2H]C([2H])([2H])N(C(=O)c1cc2c(F)cc(F)cc2[nH]1)[C@@H](CC(C)(C)F)C(=O)N1C[C@]2(C[C@H]1C#N)C(=O)Nc1ccc(Cl)cc12` [Example 454], with above 7.00.
Consider `CN(C(=O)c1cn(C2CC2)nn1)[C@@H](Cc1ccccc1)C(=O)N1C[C@]2(C[C@H]1C#N)C(=O)Nc1ccccc12` [Example 359], for which the pIC50 was above 7.00.
With `Cc1cccc(C(F)(F)C(=O)N(C)[C@@H](CC(C)(C)F)C(=O)N2C[C@]3(C[C@H]2C#N)C(=O)Nc2ccc(Cl)cc23)n1` [Example 486], the pIC50 was above 7.00.
Compound `CC(C)C[C@@H](C(=O)N1C[C@]2(C[C@H]1C=O)C(=O)Nc1ccccc12)N(C)C(=O)c1cc2c(F)cc(F)cc2[nH]1` [Example 149] had a pIC50 above 7.00.
Compound `CC(C)C[C@@H](C(=O)N1C[C@]2(C[C@H]1C#N)C(=O)Nc1ccccc12)N(C)C(=O)c1cc2ccccc2cn1` [Example 212] showed a pIC50 above 7.00.
Then `[2H]C([2H])([2H])N(C(=O)c1cn(CC(F)(F)F)nn1)[C@@H](CC(C)(C)C)C(=O)N1C[C@]2(C[C@H]1C#N)C(=O)Nc1ccccc12` [Example 380], with above 7.00.
Compound `[2H]C([2H])([2H])N(C(=O)c1cn(C2CCC2)nn1)[C@@H](Cc1ccc(F)cc1)C(=O)N1C[C@]2(C[C@H]1C#N)C(=O)Nc1ccccc12` [Example 390] showed a pIC50 above 7.00.
`CC(C)C[C@@H](C(=O)N1C[C@]2(C[C@H]1C#N)C(=O)Nc1ccccc12)N(C)C(=O)c1c(Cl)cc(F)cc1Cl` [Example 186] gave a pIC50 above 7.00.
